This assay concerns the target Metabotropic glutamate receptor 5 (Rattus norvegicus, UniProt P31424). Description: Binding Assay: Binding assays were performed as described in Schaffhauser H, Richards J G, Cartmell J, Chaboz S, Kemp J A, Klingelschmidt A, Messer J, Stadler H, Woltering T and Mutel V (1998) In vitro binding characteristics of a new selective group II metabotropic glutamate receptor radioligand, [3H]LY354740, in rat brain. Mol Pharmacol 53:228-233) at room temperature with slight modifications. Type of assay: tissue-based.

Metabotropic glutamate receptor 5, sequence (P31424 whole entry): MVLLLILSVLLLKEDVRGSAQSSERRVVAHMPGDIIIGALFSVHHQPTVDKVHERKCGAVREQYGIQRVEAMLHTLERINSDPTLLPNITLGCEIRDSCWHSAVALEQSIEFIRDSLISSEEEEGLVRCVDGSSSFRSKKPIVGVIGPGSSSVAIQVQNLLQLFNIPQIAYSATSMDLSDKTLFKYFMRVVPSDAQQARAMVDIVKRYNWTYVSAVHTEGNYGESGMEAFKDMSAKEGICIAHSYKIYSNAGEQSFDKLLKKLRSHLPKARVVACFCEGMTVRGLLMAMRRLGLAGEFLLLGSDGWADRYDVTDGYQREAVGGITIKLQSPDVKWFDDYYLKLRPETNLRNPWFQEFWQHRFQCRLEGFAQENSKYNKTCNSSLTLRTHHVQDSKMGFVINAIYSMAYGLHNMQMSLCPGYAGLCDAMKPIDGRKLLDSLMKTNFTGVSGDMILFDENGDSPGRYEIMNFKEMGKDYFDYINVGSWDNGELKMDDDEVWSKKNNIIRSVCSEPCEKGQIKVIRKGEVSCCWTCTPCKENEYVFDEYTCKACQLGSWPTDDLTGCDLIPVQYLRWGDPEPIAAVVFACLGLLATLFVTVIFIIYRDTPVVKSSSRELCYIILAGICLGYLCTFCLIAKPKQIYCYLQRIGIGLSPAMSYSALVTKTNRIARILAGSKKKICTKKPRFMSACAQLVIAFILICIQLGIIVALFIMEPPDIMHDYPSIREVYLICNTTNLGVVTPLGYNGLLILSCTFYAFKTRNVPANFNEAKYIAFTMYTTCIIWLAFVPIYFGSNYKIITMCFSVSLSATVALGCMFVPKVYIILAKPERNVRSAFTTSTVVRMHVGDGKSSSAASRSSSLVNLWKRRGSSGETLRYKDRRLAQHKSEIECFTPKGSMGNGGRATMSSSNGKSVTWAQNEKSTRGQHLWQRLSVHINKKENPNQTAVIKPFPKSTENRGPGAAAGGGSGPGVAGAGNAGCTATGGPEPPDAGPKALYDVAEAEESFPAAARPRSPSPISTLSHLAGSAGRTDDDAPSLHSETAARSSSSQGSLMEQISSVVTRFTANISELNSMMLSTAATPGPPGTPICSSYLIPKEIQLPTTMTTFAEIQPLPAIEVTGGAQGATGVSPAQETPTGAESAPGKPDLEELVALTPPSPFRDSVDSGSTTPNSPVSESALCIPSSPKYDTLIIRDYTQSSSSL

Regarding `Cc1nc(C#Cc2ccc(-c3ccccc3C#N)nc2)cs1`, the Ki is 2.6 nM.

As a reminder, the Ki is the equilibrium dissociation constant of an inhibitor or competing ligand from its target. High values mean a looser hold on the target, low ones a stronger hold on the target.

For the origin of these results see ChEMBL document CHEMBL3639017, “Thiazolyl mGluR5 antagonists and methods for their use” (2013).
